Measurements taken from US20220315558A1, “POLYMORPHS OF 1-(2-((((TRANS)-3-FLUORO-1-(3-FLUOROPYRIDIN-2-YL)CYCLOBUTYL)METHYL)AMINO)PYRIMIDIN-5-YL)-1H-PYRROLE-3-CARBOXAMIDE” (Cytokinetics, Inc., priority 2019, published 2022).

Columns and labels:
[1] = XRPD analysis after heating at 150° C.; assay type: physicochemical
Description: Polymorphic Form II of 1-(2-((((trans)-3-fluoro-1-(3-fluoropyridin-2-yl)cyclobutyl)methyl)amino)pyrimidin-5-yl)-1H-pyrrole-3-carboxamide was analyzed by XRPD, DSC, TGA, and GVS.

[2] = Gravimetric Vapour Sorption (GVS) moisture sorption isotherm; assay type: physicochemical; settings: over 0-90% RH range, 25° C.
Description: GVS data were collected using a SMS DVS Intrinsic moisture sorption analyser, controlled by DVS Intrinsic Control software v1.0.0.30. The sample temperature was maintained at 25° C. by the instrument controls. The humidity was controlled by mixing streams of dry and wet nitrogen, with a total flow rate of 200 ml/min The relative humidity was measured by a calibrated Rotronic probe (dynamic range of 1.0-100% RH), located near the sample. The weight change, (mass relaxation) of the sample as a function of % RH was constantly monitored by the microbalance (accuracy ±0.005 mg).
Typically 5-20 mg of sample was placed in a tared mesh stainless steel basket under ambient conditions. The sample was loaded and unloaded at 40% RH and 25° C. (typical room conditions). A moisture sorption isotherm was performed as outlined below (2 scans giving 1 complete cycle). The standard isotherm was performed at 25° C. at 10% RH intervals over a 0-90% RH range. Data analysis was undertaken in Microsoft Excel using DVS Analysis Suite v6.0.

SMILES: NC(=O)c1ccn(-c2cnc(NC[C@]3(c4ncccc4F)C[C@H](F)C3)nc2)c1 [Form II, 1-(2-((((trans)-3-fluoro-1-(3-fluoropyridin-2-yl)cyclobutyl)methyl)amino)pyrimidin-5-yl)-1H-pyrrole-3-carboxamide]
- solid form by XRPD after heating [1]: converted to Form I
- moisture uptake as determined by GVS [2]: about 1.65%
